We go through 20 compounds from patent US10723727B2, “Tubulysin analogs and methods for their preparation” (priority 2016, dated 2020).

The assay concerns the target T1, tubulin/RB3-stathmin-like-domain (RB3-SLD-tdm) complex (Sus scrofa, UniProt P02550+P02554).
T1 construct: purchased Cytoskeleton, Inc. T240; host or cells: RB3-SLD was made in house in E. coli
Put plainly: Tubulin Peptide-Binding Site Competition Assay (fluorescence polarization). More on the design: species or system Porcine. Particulars: FP competition with BODIPY-labeled vinca peptide probe; read after five hours at 22° C.; read-out: Tubulin Peptide-Binding Site Competition Assay IC50. The procedure: Tubulin Peptide-Binding Site Competition Assay
Tubulin binding potency was measured for payloads or cysteine-capped linker-payloads using a fluorescence polarization (FP) competition assay. The binding of a BODIPY-labeled vinca peptide probe (# B31) to a tubulin/RB3-stathmin-like-domain (RB3-SLD-tdm) complex generates a high FP signal, which can be decreased when mixing with test compounds that compete with the FP probe. The order of addition for the reagents in the FP assay was designed to pre-mix the FP probe with various concentrations of the test compound before mixing them with the tubulin/RB3-SLD-dm complex. The final assay concentrations of the probe, tubulin and RB3-SLD-dm were 3, 6, and 100 nM, respectively. IC50 for each test compound is obtained by fitting the dose-dependent FP signal change using GraphPad Prism version 5 software (La Jolla, Calif.) while Ki is converted from the IC50 using the equations described previously (Nikolovska-Coleska et al., 2004). The FP signals were measured on an Infinite M1000 (Tecan, San Jose, Calif.) using ProxiPlate-384 F Plus, Black (Perkin-Elmer, Waltham, Mass., Cat #6008260) with 15 μL of solution per well. Sample dilution and mixing were done using a Beckman Biomek XF (Brea, Calif.). Porcine tubulin was purchased from Cytoskeleton, Inc. (Denver, Colo., Cat #T240) and RB3-SLD was expressed in E. coli. and purified on Q and then Superdex75 columns. The FP assay test for each compound was run in duplicates by mixing 6 μL of solution 1 containing 2.5× test compound (2.5× serial dilution from 7.8 μM maximum concentration, 11 total concentrations) and 7.5 nM of the FP probe in 80 mM PIPES, pH 7.0, 0.02% Tween 20, 2 mM MgCl2, 1 mM EGTA and 3% DMSO with 9 μL of solution 2 containing […] porcine tubulin and 167 nM of RB3-SLD-dm peptide ([…]-[…]) on ProxiPlate-384 micro-plates.
Background: In fluorescence polarisation assays a small probe gives low polarisation when free and higher when bound to something large.
In general, IC50 refers to the concentration at which inhibition is half-maximal. For the compound `CC[C@H](C)[C@H](NC(=O)[C@@]1(C)CCCN1C)C(=O)N(C)[C@H](C[C@@H](OC(C)=O)c1nc(C(=O)NCCC2CCCCC2)cs1)C(C)C` [#B49, 1,2-dimethyl-D-prolyl-N-[(1R,3R)-1-(acetyloxy)-1-{4-[(2-cyclohexylethyl)carbamoyl]-1,3-thiazol-2-yl}-4-methylpentan-3-yl]-N-methyl-L-isoleucinamide], the IC50 amounted to 127 nM.

Consider `CC[C@H](C)[C@H](NC(=O)[C@@]1(C)CCCN1C)C(=O)N(C)[C@H](C[C@@H](OC(C)=O)c1nc(C(=O)NC2CCc3ccccc3C2)cs1)C(C)C` (stereo partly drawn) [#B57, 1,2-dimethyl-D-prolyl-N-{(1R,3R)-1-(acetyloxy)-4-methyl-1-[4-(1,2,3,4-tetrhydronaphthalen-2-ylcarbamoyl)-1,3-thiazol-2-yl)pentan-3-yl}-N-methyl-L-isoleucinamide], for which the IC50 was determined as 78.8 nM.

As to `CC[C@H](C)[C@H](NC(=O)[C@@]1(C)CCCN1C)C(=O)N(C)[C@H](C[C@@H](OC(C)=O)c1nc(C(=O)NCCc2ccc(-c3ccccc3)cc2)cs1)C(C)C` [#B45, 1,2-dimethyl-D-prolyl-N-[(1R,3R)-1-(acetyloxy)-1-(4-{[2-(biphenyl-4-yl)ethyl]carbamoyl}-1,3-thiazol-2-yl)-4-methylpentan-3-yl]-N-methyl-L-isoleucinamide], the IC50 is 436 nM.

`CC[C@H](C)[C@H](NC(=O)[C@@]1(C)CCCN1C)C(=O)N(C)[C@H](C[C@@H](OC(C)=O)c1nc(C(=O)NC2(Cc3ccccc3)CCCCC2)cs1)C(C)C` [#B47, 1,2-dimethyl-D-prolyl-N-[(1R,3R)-1-(acetyloxy)-1-{4-[(1-benzylcyclohexyl)carbamoyl]-1,3-thiazol-2-yl}-4-methylpentan-3-yl]-N-methyl-L-isoleucinamide]: the IC50 turned out to be 202 nM.

`CC[C@H](C)[C@H](NC(=O)[C@@]1(C)CCCN1C)C(=O)N(C)[C@H](C[C@@H](OC(C)=O)c1nc(C(=O)NCCc2cccc3ccccc23)cs1)C(C)C` [#B70, 1,2-dimethyl-D-prolyl-N-[(1R,3R)-1-(acetyloxy)-4-methyl-1-(4-{[2-(naphthalen-1-yl)ethyl]carbamoyl}-1,3-thiazol-2-yl)pentan-3-yl]-N-methyl-L-isoleucinamide]: the IC50 was 56.3 nM.

As to `CC[C@H](C)[C@H](NC(=O)[C@@]1(C)CCCN1C)C(=O)N(C)[C@H](C[C@@H](OC(C)=O)c1nc(C(=O)NCCNC(=O)c2ccccc2)cs1)C(C)C` [#B60, 1,2-dimethyl-D-prolyl-N-[(1R,3R)-1-(acetyloxy)-1-(4-{[2-(benzoylamino)ethyl]carbamoyl}-1,3-thiazol-2-yl)-4-methylpentan-3-yl]-N-methyl-L-isoleucinamide], the IC50 was found to be 108 nM.

For the compound `CC[C@H](C)[C@H](NC(=O)[C@@]1(C)CCCN1C)C(=O)N(C)[C@H](C[C@@H](OC(C)=O)c1nc(C(=O)NCCN2CCCC2=O)cs1)C(C)C` [#B73, 1,2-dimethyl-D-prolyl-N-[(1R,3R)-1-(acetyloxy)-4-methyl-1-(4-{[2-(2-oxopyrrolidin-1-yl)ethyl]carbamoyl}-1,3-thiazol-2-yl)pentan-3-yl]-N-methyl-L-isoleucinamide], the IC50 came out at 85.5 nM.

`CC[C@H](C)[C@H](NC(=O)[C@@]1(C)CCCN1C)C(=O)N(C)[C@H](C[C@@H](OC(C)=O)c1nc(C(=O)NCCc2cnccn2)cs1)C(C)C` [#B68, 1,2-dimethyl-D-prolyl-N-{(1R,3R)-1-(acetyloxy)-4-methyl-1-(4-{[2-(pyrazin-2-yl)ethyl]carbamoyl}-1,3-thiazol-2-yl)pentan-3-yl]-N-methyl-L-isoleucinamide]: the IC50 came to 84.7 nM.

For the compound `CC[C@H](C)[C@H](NC(=O)[C@@]1(C)CCCN1C)C(=O)N(C)[C@H](C[C@@H](OC(C)=O)c1nc(C(=O)NCCn2nc(C)cc2C)cs1)C(C)C` [#B42, 1,2-dimethyl-D-prolyl-N-[(1R,3R)-1-(acetyloxy)-1-(4-{[2-(3,5-dimethyl-1H-pyrazol-1-yl)ethyl]carbamoyl}-1,3-thiazol-2-yl)-4-methylpentan-3-yl]-N-methyl-L-isoleucinamide], the IC50 was found to be 27.6 nM.

Turning to `CC[C@H](C)[C@H](NC(=O)[C@@]1(C)CCCN1C)C(=O)N(C)[C@H](C[C@@H](OC(C)=O)c1nc(C(=O)NCCc2c[nH]c3ccccc23)cs1)C(C)C` [#B59, 1,2-dimethyl-D-prolyl-N-[(1R,3R)-1-(acetyloxy)-1-(4-{[2-(1H-indol-3-yl)ethyl]carbamoyl}-1,3-thiazol-2-yl)-4-methylpentan-3-yl]-N-methyl-L-isoleucinamide], the IC50 was determined as 64.6 nM.

Turning to `CC[C@H](C)[C@H](NC(=O)[C@@]1(C)CCCN1C)C(=O)N(C)[C@H](C[C@@H](OC(C)=O)c1nc(C(=O)NCCn2ccnc2)cs1)C(C)C` [#B48, 1,2-dimethyl-D-prolyl-N-[(1R,3R)-1-(acetyloxy)-1-{4-{[2-(1H-imidazol-1-yl)ethyl]carbamoyl}-1,3-thiazol-2-yl)-4-methylpentan-3-yl]-N-methyl-L-isoleucinamide], the IC50 worked out at 110 nM.

Take `CC[C@H](C)[C@H](NC(=O)[C@@]1(C)CCCN1C)C(=O)N(C)[C@H](C[C@@H](OC(C)=O)c1nc(C(=O)NC(Cc2ccccc2)c2ccc(N(C)C)cc2)cs1)C(C)C` (stereo partly drawn) [#B66, 1,2-dimethyl-D-prolyl-N-{(1R,3R)-1-(acetyloxy)-1-[4-({1-[4-(dimethylamino)phenyl]-2-phenylethyl}carbamoyl)-1,3-thiazol-2-yl]-4-methylpentan-3-yl}-N-methyl-L-isoleucinamide]: the IC50 was 52.2 nM.

`CC[C@H](C)[C@H](NC(=O)C(C)(C)N)C(=O)N(C)[C@H](C[C@@H](OC(C)=O)c1nc(C(=O)N[C@@H](Cc2ccccc2)C[C@H](C)C(=O)OC)cs1)C(C)C` [#B35, 2-methylalanyl-N-[(1R,3R)-1-(acetyloxy)-1-(4-{[(2R,4S)-5-methoxy-4-methyl-5-oxo-1-phenylpentan-2-yl]carbamoyl}-1,3-thiazol-2-yl)-4-methylpentan-3-yl]-N-methyl-L-isoleucinamide]: the IC50 was determined as 96.8 nM.

As to `CC[C@H](C)[C@H](NC(=O)[C@@]1(C)CCCN1C)C(=O)N(C)[C@H](C[C@@H](OC(C)=O)c1nc(C(=O)NC2(Cc3ccccc3)CC2)cs1)C(C)C` [#B55], the IC50 is 28.4 nM.

`CC[C@H](C)[C@H](NC(=O)C(C)(C)N(C)C)C(=O)N(C)[C@H](C[C@@H](OC(C)=O)c1nc(C(=O)N[C@@H](Cc2ccccc2)C[C@H](C)C(=O)OC)cs1)C(C)C` [#B34, N,N,-2-trimethylalanyl-N-[(1R,3R)-1-(acetyloxy)-1-(4-{[(2R,4S)-5-methoxy-4-methyl-5-oxo-1-phenylpentan-2-yl]carbamoyl}-1,3-thiazol-2-yl)-4-methylpentan-3-yl]-N-methyl-L-isoleucinamide]: the IC50 was found to be 24.8 nM.

On to `CC[C@H](C)[C@H](NC(=O)[C@@]1(C)CCCN1C)C(=O)N(C)[C@H](C[C@@H](OC(C)=O)c1nc(C(=O)NCCCN2CCCC2=O)cs1)C(C)C` [#B43, 1,2-dimethyl-D-prolyl-N-[(1R,3R)-1-(acetyloxy)-4-methyl-1-(4-{[3-(2-oxopyrrolidin-1-yl)propyl]carbamoyl}-1,3-thiazol-2-yl)pentan-3-yl]-N-methyl-L-isoleucinamide], for which the IC50 was 51.8 nM.

`CC[C@H](C)[C@H](NC(=O)[C@@]1(C)CCCN1C)C(=O)N(C)[C@H](C[C@@H](OC(C)=O)c1nc(C(=O)NCCc2cnn(C)c2)cs1)C(C)C` [#B77, 1,2-dimethyl-D-prolyl-N-[(1R,3R)-1-(acetyloxy)-4-methyl-1-(4-{[2-(1-methyl-1H-pyrazol-4-yl)ethyl]carbamoyl}-1,3-thiazol-2-yl)pentan-3-yl]-N-methyl-L-isoleucinamide]: the IC50 is 249 nM.

Take `CC[C@H](C)[C@H](NC(=O)[C@@]1(C)CCCN1C)C(=O)N(C)[C@H](C[C@@H](OC(C)=O)c1nc(C(=O)NC(c2ccccc2)c2ccccc2)cs1)C(C)C` [#B67, 1,2-dimethyl-D-prolyl-N-[(1R,3R)-1-(acetyloxy)-1-{4-[(diphenylmethyl)carbamoyl]-1,3-thiazol-2-yl}-4-methylpentan-3-yl]-N-methyl-L-isoleucinamide]: the IC50 amounted to 348 nM.

In the case of `CC[C@H](C)[C@H](NC(=O)[C@@]1(C)CCCN1C)C(=O)N(C)[C@H](C[C@@H](OC(C)=O)c1nc(C(=O)NCCn2cccn2)cs1)C(C)C` [#B56, 1,2-dimethyl-D-prolyl-N-[(1R,3R)-1-(acetyloxy)-4-methyl-1-(4-{[2-(1H-pyrazol-1-yl)ethyl]carbamoyl}-1,3-thiazol-2-yl)pentan-3-yl]-N-methyl-L-isoleucinamide], the IC50 was 33.6 nM.

`CC[C@H](C)[C@H](NC(=O)[C@@]1(C)CCCN1C)C(=O)N(C)[C@H](C[C@@H](OC(C)=O)c1nc(C(=O)NCCN2CCOCC2)cs1)C(C)C` [#B46, 1,2-dimethyl-D-prolyl-N-[(1R,3R)-1-(acetyloxy)-4-methyl-1-(4-{[2-(morpholin-4-yl)ethyl]carbamoyl}-1,3-thiazol-2-yl)pentan-3-yl]-N-isomethyl-L-leucinamide]: the IC50 was found to be 282 nM.
